Laboratory results: patent US9422263B2, “Fluoro-substituted 3,5-dicyano-4-(1H-indazol-5-yl)-2,6-dimethyl-1,4-dihydropyridine derivatives and methods of use thereof” (BAYER PHARMA AKTIENGESELLSCHAFT, priority 2009, dated 2016)
pIC50: −log10 of the molar value.

Legend:
[1] = biological target: Recombinant human c-Met protein (Homo sapiens (Human), UniProt P08581); test: c-Met receptor tyrosine kinase activity assay (NADH read-out); format: biochemical; conditions: ATP 30 μM, c-Met 30 nM
Experimental: c-Met Receptor Tyrosine Kinase Activity Assay (NADH Read-Out):
Recombinant human c-Met protein (Invitrogen, Carlsbad, Calif., USA) is used. As substrate for the kinase reaction the peptide KKKSPGEYVNIEFG (JPT, Germany) is used. For the assay, 1 μL of a 51-fold concentrated solution of the test compound in DMSO is pipetted into a white 384-well microtiter plate (Greiner Bio-One, Frickenhausen, Germany). 25 μL of a solution of c-Met (final concentration 30 nM) and pyruvate kinase/lactate dehydrogenase (Roche Diagnostics, Mannheim, Germany; final concentration 8 mg/L) in assay buffer [3-(N-morpholino)propanesulfonic acid (MOPS), 50 mM, pH 7; MgCl2, 10 mM; bovine serum albumin (BSA), 0.01%; Triton X 100, 0.01%; DTT, 2 mM] are added, and the mixture is incubated for 5 min at room temperature. Then, the kinase reaction is started by the addition of 25 μL of a solution of adenosine triphosphate (ATP, final concentration 30 μM), substrate (final concentration 100 μM), nicotinamide adenine dinucleo-tide (NADH, final concentration 50 μM) and dithiothreitol (DTT, final concentration 2 mM) in assay buffer, and the resulting mixture is incubated for a reaction time of 100 min at 32° C.
Subsequently, the amount of phosphorylated substrate is evaluated by measurement of the decrease of NADH fluorescence. Therefore, the fluorescence emissions at 465 nm after excitation at 340 nm is measured in a fluorescence reader, e.g. Tecan Ultra (Tecan, Männedorf, Switzerland). The data are normalised (enzyme reaction without inhibitor=0% inhibition; all other assay components but no enzyme=100% inhibition).

[2] = biological target: recombinant kinase domain of the human c-Met (amino acids 960-1390) (Homo sapiens (Human), UniProt P08581); test: c-Met receptor tyrosine kinase homogeneous time-resolved fluorescence assay (alternative format); format: biochemical; conditions: HTRF format; ATP 10 μM
Chain of recombinant kinase domain of the human c-Met (amino acids 960-1390) (P08581 960-1390): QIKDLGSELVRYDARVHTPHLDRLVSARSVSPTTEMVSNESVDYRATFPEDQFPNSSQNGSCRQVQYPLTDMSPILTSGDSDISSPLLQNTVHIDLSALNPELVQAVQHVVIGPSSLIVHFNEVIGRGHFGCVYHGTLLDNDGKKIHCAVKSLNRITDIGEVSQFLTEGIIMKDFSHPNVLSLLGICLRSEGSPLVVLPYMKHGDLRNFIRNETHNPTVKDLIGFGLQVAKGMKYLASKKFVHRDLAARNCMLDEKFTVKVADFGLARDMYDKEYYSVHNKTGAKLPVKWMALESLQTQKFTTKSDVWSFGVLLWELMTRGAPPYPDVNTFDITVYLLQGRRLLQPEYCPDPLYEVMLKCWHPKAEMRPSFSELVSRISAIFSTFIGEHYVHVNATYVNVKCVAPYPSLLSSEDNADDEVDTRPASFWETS
From the text: c-Met Receptor Tyrosine Kinase Homogeneous Time-Resolved Fluorescence Assay (Alternative Format):
The N-terminally His6-tagged recombinant kinase domain of the human c-Met (amino acids 960-1390), expressed in insect cells (SF21) and purified by Ni-NTA affinity chromatography and consecutive size exclusion chromatography (Superdex 200), is used. Alternatively, commercially available c-Met (Millipore) can be used. As substrate for the kinase reaction, the biotinylated poly-Glu, Tyr (4:1) copolymer (#61GTOBLC, Cis Biointernational, Marcoule, France) is used.
For the assay, […] of a 100-fold concentrated solution of the test compound in DMSO is pipetted into a black low-volume 384-well microtiter plate (Greiner Bio-One, Frickenhausen, Germany). 2 μL of a solution of c-Met in assay buffer [25 mM Hepes/NaOH, pH 7.5; 5 mM MgCl2; 5 mM MnCl2; 2 mM dithiothreitol; 0.1% (v/v) Tween 20 (Sigma); 0.1% (w/v) bovine serum albumin] are added, and the mixture is incubated for 15 min at 22° C. to allow pre-binding of the test compound to the enzyme before the start of the kinase reaction. Then, the kinase reaction is started by the addition of 3 μL of a solution of adenosine triphosphate (ATP, 16.7 μM; final concentration in the 5 μL assay volume is 10 μM) and substrate (2.27 μg/mL, final concentration in the 5 μL assay volume is 1.36 μg/mL ˜30 nM) in assay buffer, and the resulting mixture is incubated for a reaction time of 30 min at 22° C. The concentration of c-Met in the assay is adjusted depending on the activity of the enzyme lot and is appropriately chosen to have the assay in the linear range; typical enzyme concentrations are in the range of about 0.03 nM (final concentration in the 5 μL assay volume). The reaction is stopped by the addition of 5 μL of a solution of HTRF detection reagents [40 nM streptavidine-X Lent and 2.4 nM PT66-Eu-chelate, an europium-chelate labelled anti-phosphotyrosine antibody (Perkin-Elmer)] in an aqueous EDTA solution [100 mM EDTA, 0.2% (w/v) bovine serum albumin in 50 mM HEPES/NaOH, pH 7.5].
The resulting mixture is incubated for 1 h at 22° C. to allow the binding of the biotinylated phosphorylated peptide to the streptavidine-XLent and the PT66-Eu-chelate. Subsequently, the amount of phosphorylated substrate is evaluated by measurement of the resonance energy transfer from the PT66-Eu-chelate to the streptavidine-XLent. Therefore, the fluorescence emissions at 620 nm and 665 nm after excitation at 350 nm are measured in an HTRF reader, e.g. Rubystar (BMG Lab-technologies, Offenburg, Germany) or Viewlux (Perkin-Elmer). The ratio of the emissions at 665 nm and at […] is taken as the measure for the amount of phosphorylated substrate. The data are normalised (enzyme reaction without inhibitor=0% inhibition; all other assay components but no enzyme=100% inhibition).

[3] = Caco-2 permeability assay; format: in vitro ADME; conditions: human, apical to basolateral, 2 h at 37° C., Table 4, read-out: Caco-2 permeability PappA-B
From the text: Caco-2 Permeability Assay:
The in vitro permeation of a test compound across a Caco-2 cell monolayer is a well-established assay system to predict the permeability from the gastro-intestinal tract [cf. P. Artursson and J. Karlsson: Correlation between oral drug absorption in humans and apparent drug permeability coefficients in human intestinal epithelial (Caco-2) cells, Biochem. Biophys. 175 (3), 880-885 (1991)]. The permeability of the compounds of the present invention in such Caco-2 cells was determined as described below:
Human caco-2 cells (ACC No. 169, DSMZ, German Collection of Microorganisms and Cell Cultures, Braunschweig, Germany) are seeded on 24-well insert plates and are allowed to grow for 14-16 days. For permeability studies, the test compounds are dissolved in DMSO and diluted to the final test concentration of 2 μM with transport buffer [Hanks' Buffered Salt Solution, Gibco/Invitrogen, further supplemented with glucose (final concentration 19.9 mM) and HEPES (final concentration 9.8 mM)]. For determination of the apical to basolateral permeability (PappA-B), the test compound solution is added to the apical side of the cell monolayer and transport buffer to the basolateral side of the monolayer; for determination of the basolateral to apical permeability (PappB-A), the test compound solution is added to the basolateral side of the cell monolayer and transport buffer to the apical side of the monolayer. Samples are taken from the donor compartment at the beginning of the experiment to confirm mass balance. After an incubation of 2 h at 37° C., samples are taken from both compartments. Samples are analyzed by LC-MS/MS, and the apparent permeability coefficients are calculated. Lucifer Yellow permeability is assayed for each cell monolayer to ensure cell monolayer integrity, and the permeability of Atenolol (low permeability marker) and Sulfasalazine (marker for active excretion) is determined for each batch as quality control.

Chain of Recombinant human c-Met protein (P08581 25-1390): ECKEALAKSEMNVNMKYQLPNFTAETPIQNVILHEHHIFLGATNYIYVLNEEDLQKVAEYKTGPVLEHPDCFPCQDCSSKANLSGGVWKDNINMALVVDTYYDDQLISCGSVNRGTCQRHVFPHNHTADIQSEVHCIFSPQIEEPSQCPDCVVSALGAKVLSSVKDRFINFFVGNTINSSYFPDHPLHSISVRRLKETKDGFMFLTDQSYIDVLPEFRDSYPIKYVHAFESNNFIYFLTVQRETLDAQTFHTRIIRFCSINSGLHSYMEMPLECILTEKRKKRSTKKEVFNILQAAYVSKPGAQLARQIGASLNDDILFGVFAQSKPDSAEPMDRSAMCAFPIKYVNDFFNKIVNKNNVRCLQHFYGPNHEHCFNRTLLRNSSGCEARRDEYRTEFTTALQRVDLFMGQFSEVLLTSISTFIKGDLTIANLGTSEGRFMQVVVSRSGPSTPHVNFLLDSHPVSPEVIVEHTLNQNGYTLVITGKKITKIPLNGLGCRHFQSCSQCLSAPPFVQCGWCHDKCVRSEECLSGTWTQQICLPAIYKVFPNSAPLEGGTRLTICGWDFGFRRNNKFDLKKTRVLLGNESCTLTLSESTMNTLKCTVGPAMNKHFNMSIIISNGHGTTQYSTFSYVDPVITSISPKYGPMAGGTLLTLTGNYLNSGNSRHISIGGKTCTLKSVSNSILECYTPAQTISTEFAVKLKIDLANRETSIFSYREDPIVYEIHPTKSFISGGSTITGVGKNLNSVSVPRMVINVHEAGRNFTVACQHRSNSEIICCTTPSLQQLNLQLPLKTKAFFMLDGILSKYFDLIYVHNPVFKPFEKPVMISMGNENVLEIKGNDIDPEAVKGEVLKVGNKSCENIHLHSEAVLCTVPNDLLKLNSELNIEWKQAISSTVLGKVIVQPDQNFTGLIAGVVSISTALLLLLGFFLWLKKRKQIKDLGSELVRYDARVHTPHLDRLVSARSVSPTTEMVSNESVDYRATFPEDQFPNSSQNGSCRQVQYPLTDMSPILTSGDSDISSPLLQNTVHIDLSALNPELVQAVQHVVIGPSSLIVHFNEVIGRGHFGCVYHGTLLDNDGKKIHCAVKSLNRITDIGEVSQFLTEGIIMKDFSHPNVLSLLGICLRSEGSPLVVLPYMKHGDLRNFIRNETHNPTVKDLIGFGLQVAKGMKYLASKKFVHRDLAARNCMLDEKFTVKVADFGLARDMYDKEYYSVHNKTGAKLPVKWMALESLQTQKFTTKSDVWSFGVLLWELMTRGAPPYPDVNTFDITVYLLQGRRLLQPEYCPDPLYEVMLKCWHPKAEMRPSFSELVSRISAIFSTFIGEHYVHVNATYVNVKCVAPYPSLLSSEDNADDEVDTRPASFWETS

Structure (SMILES) | pIC50 [1] | pIC50 [2] | Papp at 2 h, 2 μM [3]
CCC(F)(F)C1=C(C#N)C(c2ccc3[nH]nc(C)c3c2)C(C#N)=C(C)N1 (racemic) [Example 30, rac-2-(1,1-Difluoropropyl)-6-methyl-4-(3-methyl-1H-indazol-5-yl)-1,4-dihydropyridine-3,5-dicarbonitrile] | 7.68 | 8.52 | 22 ×10⁻⁶ cm/s
CC1=C(C#N)C(c2ccc3[nH]nc(C)c3c2)C(C#N)=C(C(F)F)N1 (single isomer, unassigned) [Example 2, 2-(Difluoromethyl)-6-methyl-4-(3-methyl-1H-indazol-5-yl)-1,4-dihydropyridine-3,5-dicarbonitrile] | 8.22 | 8.70 | 
